Patent publication US20230009608A1, “GRK2 INHIBITORS AND USES THEREOF” (Cygnal Therapeutics, Inc., priority 2020, published 2023)
Where two headings read alike, the source gives them in different places.

Target: T1, GRK2 (Homo sapiens, UniProt P25098)
T1 construct: purchased SignalChem A14-10G
T1 sequence (P25098 1-689): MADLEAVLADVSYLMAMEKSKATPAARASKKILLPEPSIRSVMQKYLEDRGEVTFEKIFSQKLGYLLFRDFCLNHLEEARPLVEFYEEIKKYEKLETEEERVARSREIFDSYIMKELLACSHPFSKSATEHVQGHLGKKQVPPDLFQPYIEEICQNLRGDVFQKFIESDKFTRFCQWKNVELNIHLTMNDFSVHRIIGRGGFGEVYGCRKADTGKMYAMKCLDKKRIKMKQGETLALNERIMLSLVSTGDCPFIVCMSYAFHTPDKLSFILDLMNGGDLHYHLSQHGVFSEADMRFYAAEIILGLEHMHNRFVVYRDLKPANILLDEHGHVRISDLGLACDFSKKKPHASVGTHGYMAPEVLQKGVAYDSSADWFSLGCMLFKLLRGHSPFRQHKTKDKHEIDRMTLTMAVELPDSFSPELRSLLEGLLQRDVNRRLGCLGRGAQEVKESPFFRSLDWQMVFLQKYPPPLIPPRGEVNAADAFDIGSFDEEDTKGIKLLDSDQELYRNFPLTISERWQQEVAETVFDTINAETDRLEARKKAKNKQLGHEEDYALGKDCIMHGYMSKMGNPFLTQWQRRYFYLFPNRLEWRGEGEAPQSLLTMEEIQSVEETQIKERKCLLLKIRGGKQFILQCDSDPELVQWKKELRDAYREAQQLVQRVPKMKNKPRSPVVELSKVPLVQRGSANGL
Test: ADPGlo GRK2 Inhibition Assay (Example 8)
Format: biochemical
Procedure: HTS was performed using 1 μM compound.
Compounds were dissolved in 100% DMSO, serially diluted tree-fold from 100 μM concentration to 46 nM and transferred (50 nL) into assay ready plate.
Materials: GRK2 was purchased from SignalChem (Cat #A14-10G, Lot #X^645-3). Substrate GRKtide was from SignalChem (Cat #G46-58, Lot #R339-6). ADP-Glo Kinase Assay from Promega (Cat #V9102). Assay buffer consisted of 25 mMv HEPES (pH7.5), 10 mMv MgCl2, 0.01% Tween-20, 1 mM DDT. 384-well white plates were from Greiner […] (Item #784075).
HTS protocol: Take 384 well plate with 50 nL of compound in columns 3-22/DMSO solution 1-2,23-24. Add 2.5 μL assay buffer to columns 23 and 24 using Thermo Scientific Multidrop Combi Dispenser. Add 2.5 μL of 2× enzyme solution (15 nM in 1× assay buffer) using Thermo Scientific Multidrop Combi Reagent Dispenser to all columns except of 23 and 24. Incubate for 15 minutes. Fill plate with 2.5 μL of 2× substrate mix (20 μM ATP and 0.6 mg/nt GRKtide in Ix assay buffer) using Thermo Scientific Multidrop Combi Reagent Dispenser. Spin 15 seconds at 1000 rpm and incubate for 180 min at room temperature. Add 5 μL ADP-Glo reagent to all the wells. Spin 15 seconds at 1000 rpm and incubate for 40 min at room temperature. Add 10 μL Detection solution to all the wells. Incubate for 30 min at room temperature. Read plate in Luminescent modeon BMG PheraStar FSX (gain=3600).
Data Analysis: Data were analyzed in GraphPad Prism 8.0.2. Each HTS plate contains compounds in columns 3-22, controls (enzyme, no compound) in columns 1 and 2, and blanks (no enzyme) in columns 23 and 24. HTS percent inhibition was calculated for each compound from the signal in luminescence units and the mean of the plate controls and the mean of the plate blanks using the following equation: % Inhibition=100*(1−((signal-blank mean)/(control mean-blank mean))). At the final stage of data processing, we obtain dose-response curves, tables and SDF-files with the results of screening for each substance.

[1] = Enzyme Assay A, ADPGlo (Example 8), read-out: A: Enzymatic GRK2: IC50 (nM) (Example 8)
[2] = ADPGlo GRK2 enzyme assay, read-out: A: Enzymatic GRK2: IC50 (nM) (Example 8)
[3] = 7.5 nM GRK2, 10 μM ATP, ADP-Glo, read-out: GRK2 IC50 (nM) (Example 8)

Row | IC50 [1] | IC50 [2] | SMILES | other results
1 | 15 nM | – | Cn1c(CNc2cccc(C(=O)NCc3ccc(F)cc3F)c2)nnc1-c1ccncn1 | –
2 | 27 nM | – | Cn1c(CNc2cccc(C(=O)NCc3cc(F)ccc3F)c2)nnc1-c1ccncn1 | –
3 | 16 nM | – | Cc1ncsc1CNC(=O)c1cccc(NCc2nnc(-c3ccncn3)n2C)c1 | –
4 | 95 nM | – | Cc1cccc([C@H](C)NC(=O)c2cccc(NCc3nnc(-c4ccncn4)n3C)c2)n1 | –
5 | 15 nM | – | COc1ccc(F)cc1CNC(=O)c1cccc(NCc2nnc(-c3ccncn3)n2C)c1 | –
6 | 97 nM | – | Cn1c(CNc2cccc(C(=O)N[C@@H](CF)c3ccccc3)c2)nnc1-c1ccncn1 | –
7 | 60 nM | – | Cn1c(CNc2cccc(C(=O)NC(CO)c3ccccc3F)c2)nnc1-c1ccncn1 (stereo not drawn) | –
8 | 92 nM | – | Cn1c(CNc2cccc(C(=O)NC3CCCOc4ccccc43)c2)nnc1-c1ccncn1 (stereo not drawn) | –
9 | 15 nM | – | Cc1cc(CNC(=O)c2cccc(NCc3nnc(-c4ccncn4)n3C)c2)c(C)n1-c1ccccc1 | –
10 | 100 nM | – | Cn1c(CNc2cccc(C(=O)NCc3nc4ccccc4[nH]3)c2)nnc1-c1ccncn1 | –
11 | 880 nM | – | Cn1c(CNc2cccc(C(=O)NC(c3ccccc3)C(C)(C)CO)c2)nnc1-c1ccncn1 (stereo not drawn) | –
12 | 140 nM | – | Cn1c(CNc2cccc(C(=O)NCc3ccc(Br)cn3)c2)nnc1-c1ccncn1 | –
13 | 110 nM | – | Cc1cc(CNC(=O)c2cccc(NCc3nnc(-c4ccncn4)n3C)c2)no1 | –
14 | 150 nM | – | Cc1cnc(CNC(=O)c2cccc(NCc3nnc(-c4ccncn4)n3C)c2)cn1 | –
15 | 110 nM | – | Cn1c(CNc2cccc(C(=O)NCc3c[nH]cn3)c2)nnc1-c1ccncn1 | –
16 | 240 nM | – | Cn1c(CNc2cccc(C(=O)NCc3ccc(S(C)(=O)=O)cn3)c2)nnc1-c1ccncn1 | –
17 | 260 nM | – | CC(NC(=O)c1cccc(NCc2nnc(-c3ccncn3)n2C)c1)c1nnc2ccccn12 (stereo not drawn) | –
18 | 210 nM | – | CN(C)C[C@@H](NC(=O)c1cccc(NCc2nnc(-c3ccncn3)n2C)c1)c1ccccc1 | –
19 | – | > 1000 nM | Cc1c[nH]c(=O)c(CNC(=O)c2cccc(NCc3nnc(-c4ccncn4)n3C)c2)c1 | –
20 | – | 271 nM | CCc1ccc(CNC(=O)c2cccc(NCc3nnc(-c4ccncn4)n3C)c2)nc1 | –
21 | – | 118 nM | Cn1c(CNc2cccc(C(=O)NCc3ccc(O)c(F)c3)c2)nnc1-c1ccncn1 | –
22 | – | 182 nM | Cc1ccc(CNC(=O)c2cccc(NCc3nnc(-c4ccncn4)n3C)c2)nc1C | –
23 | – | 913 nM | COc1ccc(CNC(=O)c2cccc(NCc3nnc(-c4ccncn4)n3C)c2)cc1 | –
24 | – | 290 nM | CC(Cc1ccccn1)NC(=O)c1cccc(NCc2nnc(-c3ccncn3)n2C)c1 (stereo not drawn) | –
25 | – | 511 nM | Cn1c(CNc2cccc(C(=O)NC(C)(CO)c3ccccn3)c2)nnc1-c1ccncn1 (stereo not drawn) | –
26 | – | 177 nM | Cn1c(CNc2cccc(C(=O)NC(CO)c3ccccn3)c2)nnc1-c1ccncn1 (stereo not drawn) | –
27 | – | 208 nM | Cn1c(CNc2cccc(C(=O)NCC3Cc4ccccc4O3)c2)nnc1-c1ccncn1 (stereo not drawn) | –
28 | – | 344 nM | CN1CCN(S(=O)(=O)c2ccccc2CNC(=O)c2cccc(NCc3nnc(-c4ccncn4)n3C)c2)CC1 | –

The next lines start with the compound.

Row | SMILES | IC50 [1] | IC50 [2] | other results
29 | COc1cccc(C2(NC(=O)c3cccc(NCc4nnc(-c5ccncn5)n4C)c3)CC2)c1F | 23 nM | – | –
30 | O=C(NCc1ccccn1)c1cccc(NCc2nnc(-c3ccncc3)[nH]2)c1 | 36 nM | – | –
31 | Cc1cnc(CNC(=O)c2cccc(NCc3nnc(-c4ccncn4)n3C)c2)nc1 | 580 nM | – | –
32 | CCS(=O)(=O)c1ccc(CNC(=O)c2cccc(NCc3nnc(-c4ccncn4)n3C)c2)nc1 | 100 nM | – | –
33 | Cn1c(CNc2cccc(C(=O)NCc3ncc(Cl)cn3)c2)nnc1-c1ccncn1 | 240 nM | – | –
34 | Cn1c(CNc2cccc(C(=O)NC(CCO)c3ccc(F)cc3)c2)nnc1-c1ccncn1 (stereo not drawn) | 52 nM | – | –
35 | COc1ccc2c(c1)[C@@H](NC(=O)c1cccc(NCc3nnc(-c4ccncn4)n3C)c1)CCO2 | > 1000 nM | – | –
36 | Cn1c(CNc2cccc(C(=O)N[C@@H]3COCc4ccccc43)c2)nnc1-c1ccncc1 | 201 nM | – | –
37 | Cn1c(CNc2cccc(C(=O)N[C@H]3COCc4ccccc43)c2)nnc1-c1ccncc1 | 100 nM | – | –
38 | Cn1c(CNc2cccc(C(=O)N[C@@H]3COc4cc(F)ccc43)c2)nnc1-c1ccncc1 | 143 nM | – | –
39 | COc1cccc([C@H](C)NC(=O)c2cccc(NCc3nnc(-c4ccncc4)n3C)c2)c1 | 117 nM | – | –
40 | Cn1c(CNc2cccc(C(=O)NCc3cc4n(n3)CCC4)c2)nnc1-c1ccncn1 | – | > 1000 nM | –
41 | Cc1cnc(CCNC(=O)c2cccc(NCc3nnc(-c4ccncn4)n3C)c2)c(C)c1 | – | 432 nM | –
42 | Cn1c(CNc2cccc(C(=O)NC3(c4ncc[nH]4)CC3)c2)nnc1-c1ccncn1 | – | 748 nM | –
43 | Cn1c(CNc2cccc(C(=O)NC3CCn4nccc4C3)c2)nnc1-c1ccncn1 (stereo not drawn) | – | 133 nM | –
44 | Cn1c(CNc2cccc(C(=O)NC3CCCn4nccc43)c2)nnc1-c1ccncn1 (stereo not drawn) | – | 171 nM | –
45 | CC(Cc1nccn1C)NC(=O)c1cccc(NCc2nnc(-c3ccncn3)n2C)c1 (stereo not drawn) | – | 732 nM | –
46 | CCn1ccnc1C(C)NC(=O)c1cccc(NCc2nnc(-c3ccncn3)n2C)c1 (stereo not drawn) | – | 189 nM | –
47 | CC(C)C(NC(=O)c1cccc(NCc2nnc(-c3ccncn3)n2C)c1)c1nccn1C (stereo not drawn) | – | 152 nM | –
48 | Cc1nc2c(c(C)c1CNC(=O)c1cccc(NCc3nnc(-c4ccncn4)n3C)c1)c(=O)[nH]n2C | – | 181 nM | –
49 | Cn1c(CNc2cccc(C(=O)NC3CCCc4c3ccc(=O)n4C)c2)nnc1-c1ccncn1 (stereo not drawn) | – | > 1000 nM | –

Row | SMILES | IC50 [1] | IC50 [2] | other results
50 | COc1ccc([C@H](C)NC(=O)c2cccc(NCc3nnc(-c4ccncn4)n3C)c2)c(OC)c1 | – | 310 nM | –
51 | COc1ccc([C@@H](C)NC(=O)c2cccc(NCc3nnc(-c4ccncn4)n3C)c2)c(OC)c1 | – | 8.56 nM | –
52 | COc1ccccc1[C@H](NC(=O)c1cccc(NCc2nnc(-c3ccncn3)n2C)c1)c1noc(C)n1 | – | 741 nM | –
53 | COc1ccccc1[C@@H](NC(=O)c1cccc(NCc2nnc(-c3ccncn3)n2C)c1)c1noc(C)n1 | – | 333 nM | –
54 | CCCCCOc1ccc2c(c1)[C@H](NC(=O)c1cccc(NCc3nnc(-c4ccncn4)n3C)c1)CCO2 | – | 732 nM | –
55 | CCCCCOc1ccc2c(c1)[C@H](NC(=O)c1cccc(NCc3nnc(-c4ccncn4)n3C)c1)CO2 | – | 550 nM | –
56 | C[C@@H](NC(=O)c1cccc(NCc2nnc(-c3ccncc3)n2CCO)c1)c1ncccc1Cl | – | 11.9 nM | –
57 | Cn1c(CNc2cc(C(=O)N[C@@H]3COCc4ccccc43)ccn2)nnc1-c1ccncn1 | – | 18.7 nM | –
58 | CNS(=O)(=O)c1cccc(F)c1CNC(=O)c1ccnc(NCc2nnc(-c3ccncn3)n2C)c1 | – | 15.1 nM | –
59 | Cn1c(CNc2cc(C(=O)N[C@@H]3COc4cc(F)ccc43)ccn2)nnc1-c1ccncn1 | – | 37.5 nM | –
60 | Cc1cccnc1CNC(=O)c1cccc(NCc2nnc(-c3ccncc3F)n2C)c1 | – | 312 nM | –
61 | Cn1c(CNc2cccc(C(=O)NCc3ccncc3Cl)c2)nnc1-c1ccncc1F | – | 31.9 nM | –
62 | Cc1cc2c(cc1CNC(=O)c1cccc(NCc3nnc(-c4ccncc4F)n3C)c1)OCCO2 | – | 8 nM | –
63 | C#COc1ccc(C(=O)c2ccc(OCCCCC(=O)NCCOCCOCCOc3cccc(CNC(=O)c4cccc(NCc5nnc(-c6ccncn6)n5C)c4)c3)cc2)cc1 | – | > 1000 nM | –
64 | Cc1cccnc1CNC(=O)c1cccc(NCc2nnc(-c3ccncn3)n2C)c1 [compound 11] | – | – | IC50 [3]: 14 nM
65 | Cn1c(CNc2cccc(C(=O)NCc3ccncc3Cl)c2)nnc1-c1ccncn1 [compound 13] | – | – | IC50 [3]: 9.1 nM
66 | CN1CCC(NC(=O)c2cccc(NCc3nnc(-c4ccncn4)n3C)c2)c2ccccc21 (stereo not drawn) [compound 16] | – | – | IC50 [3]: 37 nM
67 | Cn1c(CNc2cccc(C(=O)NCc3ccnc(OCC(F)(F)F)c3)c2)nnc1-c1ccncn1 [compound 19] | – | – | IC50 [3]: 17 nM
68 | CCC[C@H](NC(=O)c1cccc(NCc2nnc(-c3ccncn3)n2C)c1)c1ccccn1 [compound 21] | – | – | IC50 [3]: 67 nM
69 | C[C@H](NC(=O)c1cccc(NCc2nnc(-c3ccncn3)n2C)c1)c1cccnc1 [compound 22] | – | – | IC50 [3]: 420 nM
